Patent US9550752B2, “Triazolinthione derivatives” (priority 2013, dated 2017)
Marks after values point to notes of the source that are not given here.

What was measured:
[1] = pH 2.7
Pyrenophora teres = test: In vivo preventive test on Pyrenophora teres (net blotch on barley); details: 500 ppm of active ingredient; barley plants, preventive spray; evaluated 14 days after inoculation
Experimental: (§1) The young plants of barley are treated by spraying the active ingredient prepared as described above. Control plants are treated only with an aqueous solution of acetone/Dimethyl sulfoxide/tween®. After 24 hours, the plants are contaminated by spraying the leaves with an aqueous suspension of Pyrenophora teres spores.

Botrytis cinerea = test: In vivo preventive test on Botrytis cinerea (grey mould); details: 100 ppm of active ingredient; gherkin plants, preventive spray; evaluated 4 to 5 days after inoculation
Experimental: as §1, with “gherkin” for “barley”, “Botrytis cinerea” for “Pyrenophora teres”

Pyricularia oryzae = assay type: in vivo; details: 500 ppm of active ingredient; rice, preventive; evaluated 8 days after inoculation
[2] = reversed phase HPLC column, pH 2.7

## CCC(C)(C)C(O)(Cc1ccncc1F)Cn1ncnc1S (stereo not shown) [Example I-17]
[1]
  LogP: 2.14^[a]
Pyrenophora teres
  biological efficacy: ≥ 90%

## OC(Cc1ccncc1Cl)(Cn1ncnc1S)C1(F)CC1 (stereo not shown) [Example I-13]
[1]
  LogP: 1.63^[a]
Botrytis cinerea
  biological efficacy: ≥ 90%

## OC(Cc1ccncc1Cl)(Cn1nc[nH]c1=S)C1(Cl)CC1 (stereo not shown) [Example I-3, 2-[2-(1-chlorocyclopropyl)-3-(3-chloropyridin-4-yl)-2-hydroxypropyl]-2,4-dihydro-3H-1,2,4-triazole-3-thione]
physchem; [2]
  chromatographic logP: 2.01

## O=C(Cc1cccnc1Cl)C1(Cl)CC1 [Example V-3, 1-(1-chlorocyclopropyl)-2-(2-chloropyridin-3-yl)ethanone]
physchem; pH 2.7
  chromatographic logP: 2.2
physchem; pH 7.8
  chromatographic logP: 2.21

## OC(Cc1ccncc1Cl)(Cn1cncn1)C1(Cl)CC1 (stereo not shown) [XXI-5, 2-(1-chlorocyclopropyl)-1-(3-chloropyridin-4-yl)-3-(1H-1,2,4-triazol-1-yl)propan-2-ol]
physchem; [2]
  chromatographic logP: 1.67
physchem; reversed phase HPLC column, pH 7.8
  chromatographic logP: 1.75

## OC(Cc1cccnc1Cl)(Cn1ncnc1S)C1(F)CC1 (stereo not shown) [Example I-11]
[1]
  LogP: 1.76^[a]
Pyricularia oryzae
  biological efficacy: ≥ 90%

## COC(C)(C)C(O)(Cc1ccncc1Cl)Cn1cncn1 (racemic) [XXI-123]
[1]
  LogP: 1.48^[a]

## OC(CCl)(Cc1cc(Cl)nc(Cl)c1)C1(Cl)CC1 (stereo not shown) [XV-1]
[1]
  LogP: 3.85^[a]
